Source: article PMC4682775, “A Novel Vasoactive Proline-Rich Oligopeptide from the Skin Secretion of the Frog Brachycephalus ephippium” (PLoS ONE, 2015)
Read-outs that look alike come from different tables or passages of the source. Non-standard residues stand in square brackets, D forms with d. No end group written: not given here. pGlu = O=C1CC[C@@H](C(=O)O)N1

Assays:
[1] = tested on: argininosuccinate syntethase enzyme (AsS); details: followed by increased L-arginine levels and formation of NO; ref [14]; cited from earlier work
[2] = cited from earlier work
rat thoracic aorta = assay: tissue or blood; design: species or system rat (male Wistar)
Experimental: Male Wistar rats (250 ± 30 g) were maintained under controlled temperature (22 ± 1 ≡C), 12/12 h light/dark cycle, and had free access to water and food (Purina-Nestlé, São Paulo, SP, Brazil). Rat thoracic aortic rings were prepared according to Silva-Filho and colleagues. Briefly, aortic rings (3–4 mm) were maintained in Krebs solution (in mM: NaCl, 118.0; KCl, 4.6; CaCl2.2H2O, 2.5; MgSO4.7H2O, 5.7; NaHCO3, 25.0; KH2PO4.H2O, 1.1; and D-glucose, 11.0) under isometric tension of 1.0 g, 37°C and bubbled with 5% CO2 in 95% O2. […]. Time control contractions induced by PE, but without adding drug were obtained in parallel with other vascular segments.
The IC50 values for the ACE activity and the pD2 values for the vasodilator curves were obtained by non-linear regression. All values were expressed as means ± SEM, and significances for compared values were analyzed by Student’s “t” test or One-way ANOVA followed by Bonferroni’s post-test. All procedures were performed using Graph Pad Prism 5.02™ (Graph Pad Software, Inc., San Diego, CA, USA).

HUVECs = details: 10^−12 to 10^−5 M, 24 hours, MTT 4 hours, n = 3
VSMCs = details: rat aortic VSMCs; 10^−12 to 10^−5 M, 24 hours, MTT 4 hours, n = 3
ACE = target: T1, ACE (Rattus norvegicus, UniProt P47820); assay: biochemical; design: species or system rat (Wistar rat serum); details: rat serum ACE; 1.0 mM hippuryl-His-Leu-OH, 20 mM Tris-HCl pH 8.1, 0.3 M NaCl, 37°C, 30 min, duplicate; inhibitor 0.05 to 50 μM; non-linear regression; read-out: IC50, ACE inhibition
T1 construct: 20 μL of enzyme-containing serum; from tissue; host or cells: fresh Wistar rat serum
T1 sequence (P47820 36-1313): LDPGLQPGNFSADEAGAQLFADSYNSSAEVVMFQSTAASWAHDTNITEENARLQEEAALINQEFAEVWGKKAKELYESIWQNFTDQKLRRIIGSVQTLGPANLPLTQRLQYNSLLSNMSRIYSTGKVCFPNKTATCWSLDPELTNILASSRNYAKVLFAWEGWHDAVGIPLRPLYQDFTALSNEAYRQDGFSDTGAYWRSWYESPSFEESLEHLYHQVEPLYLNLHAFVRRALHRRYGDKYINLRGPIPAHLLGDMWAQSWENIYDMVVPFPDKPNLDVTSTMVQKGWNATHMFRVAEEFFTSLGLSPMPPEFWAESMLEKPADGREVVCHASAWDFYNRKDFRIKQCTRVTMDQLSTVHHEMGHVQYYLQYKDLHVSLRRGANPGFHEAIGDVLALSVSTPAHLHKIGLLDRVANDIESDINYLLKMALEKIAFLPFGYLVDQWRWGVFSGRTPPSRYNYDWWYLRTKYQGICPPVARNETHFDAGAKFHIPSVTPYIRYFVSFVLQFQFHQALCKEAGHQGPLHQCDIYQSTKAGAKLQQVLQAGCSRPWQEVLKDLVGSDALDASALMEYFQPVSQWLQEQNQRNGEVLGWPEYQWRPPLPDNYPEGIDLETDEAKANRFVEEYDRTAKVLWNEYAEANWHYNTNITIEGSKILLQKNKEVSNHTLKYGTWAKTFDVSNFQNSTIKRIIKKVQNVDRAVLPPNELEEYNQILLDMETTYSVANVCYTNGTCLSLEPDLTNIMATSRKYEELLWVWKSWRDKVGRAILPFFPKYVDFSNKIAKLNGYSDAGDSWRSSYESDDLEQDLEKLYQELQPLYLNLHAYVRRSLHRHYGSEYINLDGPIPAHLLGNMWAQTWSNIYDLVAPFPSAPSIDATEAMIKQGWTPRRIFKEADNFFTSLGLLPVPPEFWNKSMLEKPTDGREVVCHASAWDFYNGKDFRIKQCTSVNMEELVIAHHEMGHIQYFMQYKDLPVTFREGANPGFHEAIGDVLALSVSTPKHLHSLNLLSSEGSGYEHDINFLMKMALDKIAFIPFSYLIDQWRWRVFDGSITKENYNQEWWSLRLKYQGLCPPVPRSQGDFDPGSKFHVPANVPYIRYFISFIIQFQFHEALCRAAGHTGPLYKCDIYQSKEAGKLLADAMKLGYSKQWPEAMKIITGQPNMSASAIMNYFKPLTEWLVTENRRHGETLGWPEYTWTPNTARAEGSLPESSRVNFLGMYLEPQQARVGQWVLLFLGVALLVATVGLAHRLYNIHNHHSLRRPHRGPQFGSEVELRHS
Experimental: Fresh Wistar rat serum was used as source of ACE in these reactions, and the product H-His-Leu-OH was measured fluorimetrically following derivatization with o-phtaldialdehyde, as described [24, 25]. Reactions were carried out, in duplicate, at 37°C for 30 min in 200 μL of 20 mM Tris-HCl buffer, pH 8.1, 0.3 M NaCl, 1.0 mM H-hippuryl-His-Leu-OH, 20 μL of enzyme-containing serum and different inhibitor concentrations as described above.

human hypertension = details: parenteral administration, in contrast to oral administration; ref [10]; cited from earlier work
Description: The Bj-BPP-5a was the first BPP for which the amino acid sequence was described. Bj-BPP-5a is present in hydroalcoholic extracts of the snake venom Bothrops jararaca. […] Captopril was the fir ...

[3] = tested on: M1 muscarinic receptor and B2 bradykinin receptor; details: ref [15]; cited from earlier work
HEK293 cells = details: chemiluminescence assay, ref [15],[17]; cited from earlier work
Description: It is essentially non-fluorescent until it reacts with NO to form a highly fluorescent benzotriazole. ...

rat aorta = details: cited from earlier work
Description: […]. NO is an important endothelium-derived vasodilator and is pivotal in several biological processes. The increase in NO production plays a pivotal role in the cardiovascular effects of BPPs.

M3 muscarinic receptors = details: ref [17]; cited from earlier work

Compound: <ENWPHPQIPP ([pGlu]NWPHPQIPP) [Bj-BPP-10c]
- argininosuccinate syntethase (AsS) activation [1]: activation of the argininosuccinate syntethase enzyme (AsS)
- antihypertensive effect ([2]; result in words, ref [13]): ACE-independent antihypertensive effect

Compound: C[C@H](CS)C(=O)N1CCC[C@H]1C(=O)O [captopril]
- Emax (rat thoracic aorta; Rattus norvegicus, endothelium intact (E+), phenylephrine 3 × 10^−7 M, 10^−9–3 × 10^−5 M cumulative, Krebs 37°C, means ± SEM, n = 6, read-out: Emax (relaxation)): 32.1 ± 4.2%
- vasodilatation (result in words) (rat thoracic aorta; endothelium dependence): endothelium-dependent vasodilatation
- vasodilatation, captopril and BPP-BrachyNH2 compared (rat thoracic aorta; result in words): equipotent and of the same magnitude

Compound: WPPPKVSP-NH2 [BPP-BrachyNH2]
- cell viability / cytotoxicity (HUVECs): No cytotoxic effects were observed
- cell viability / cytotoxicity (VSMCs): No cytotoxic effects were observed
- IC50 (ACE): 8.2 µM
- reversibility / lethality to vascular cells (rat thoracic aorta; after wash and 30 min stabilization, new PE contraction, data not shown): reversible and non-lethal to vascular cells

Compound: <EWPRPQIPP (N-terminal pyroglutamate) [Bj-BPP-9a]
- benefit in treatment of human hypertension (human hypertension): showed benefits

Compound: <EKWAP [Bj-BPP-5a]
- receptors on which increment of NO production depends [3]: depends on M1 muscarinic receptor and B2 bradykinin receptor activation
- NO release (HEK293 cells): increase NO release
- vasodilatory effects (rat aorta; in vitro and in vivo, ref [45] (TsHpt-I), [16] and [15] (Bj-BPP-5a)): vasodilatory effects
- endothelium-dependent relaxation (rat aorta; rat aorta, ref [16],[45]): endothelium-dependent relaxations sensitive to eNOS inhibition
- antihypertensive effect ([2]; NO dependence, ref [16]): NO-dependent anti-hypertensive effect

Compound: <EGGWPRPGPEIPP ([pGlu]GGWPRPGPEIPP) [Bj-BPP-13a]
- receptors to which increase of NO production is related (M3 muscarinic receptors): related to the M3 muscarinic receptors activation
